From paper PMC9268429, “Liposomal Form of 2,4-Dinitrophenol Lipophilic Derivatives as a Promising Therapeutic Agent for ATP Synthesis Inhibition” (Nanomaterials, 2022)
Entries after “also recorded” stand apart in the source; their conditions may differ. Read-outs that look alike come from different tables or passages of the source.

What was measured:
[1] = assay type: physicochemical; settings: octanol/distilled water (pH 5.5), mean ± StD
Method: Lipophilicity of the obtained 2,4-DNP derivatives was measured by octanol–water equilibrium method. Before the experiment, we mixed octanol and water in a flask, shook it vigorously, and then waited for the two phases separation. After reaching of equilibrium, the two phases are mutually saturated with one another. Next, 0.5 mg of each test compound was dissolved in 1 mL of octanol phase, and then 1 mL of distillated water phase was added (pH 5.5) and properly stirred for 1 min three times. The mixture was incubated under vigorous stirring for 1 h. Next, the mixture was centrifugated to separate octanol–water phases. The concentration of the compound was determined in octanol and water using HPLC method. The octanol–water partition coefficient was estimated as follows:(1) LogP=Log[C]octanol/[C]water
Concentration of 2,4-DNP and its esters was measured using high-performance liquid chromatography (HPLC) (Knauer Smart line, Berlin, Germany) with UV-detector and a reversed-phase shim-pack 100-5-C18 column (Kromasil, […], particle size 5 μm). The mobile phase was a mixture of acetonitrile and 0.1% citric acid water solution (60/40, v/v). The mobile phase flow-rate was 0.8 mL/min, the injection volume was […], and the detection wavelength was set at 275 nm. Chromatograms were analyzed using ChromGate version 3.3.2 software (Berlin, Germany). The retention time is 4.5 min for 2,4-DNP and 6.5 min for esters.

[2] = test system: AML12 cells; experiment: in vitro; assay type: cell-based, mouse; settings: AML12, 24 h incubation, WST-1, free compounds in 1% DMSO; read-out: IC50 (cytotoxicity)
Method: (§1) Murine breast cancer cell line expressing luciferase (4T1-Luc) and hepatocytes isolated from the normal liver of a 3-month-old mouse (AML12) were purchased from ATCC, (CRL-2539-LUC2 and CRL-2254). The cells were cultivated in RPMI 1640 or DMEM-F12 with 10% FBS, 4.5 g/L glucose, 100 U/mL penicillin, 100 µg/mL streptomycin and 0.25 µg/mL Gibco amphotericin at 37 °C, 5% CO2.
(§2) 4T1-Luc or AML12 cells were seeded in a 96-well plate (1 × 10^4 cells/well) in 200 µL/well of complete RPMI or DMEM-F12 medium and incubated at 37 °C with 5% CO2 for 48 h. Then, the medium was replaced with 100 µL/well RPMI or DMEM-F12 medium in the absence (control) or presence of various amounts of the tested compounds and incubated at 37 °C with 5% CO2 for 24 h; 10 µL/well WST-1 solution (CELLPRO-RO Roche, St. Louis, MO, USA) was added to each well and incubated under culture conditions for 2 h. The absorbance of the samples was measured at 450 nm.

[3] = test system: 4T1-Luc cells; assay type: cell-based, murine; settings: 200 µM, 1% DMSO; for ATP synthesis inhibition (decrease of luminescence): free compounds, 2 h and 4 h
Method: ATP synthesis in real time in vitro was monitored by modified luciferin–luciferase assay using 4T1-Luc cells expressing luciferase. Briefly, 4T1-Luc cells were seeded in black 96-well plates (Greiner, France) (1 × 10^4 cells/well) 48 h before the experiment. Cell medium was replaced with the mixtures (150 µL/well) of D-luciferin (150 µg/mL, saturating concentration) alone (control) and with examined substance (200 µM of free 2,4-DNP or its derivatives or their liposomal forms) in RPMI 1640 medium (10% FBS, 4.5 g/L glucose, 100 U/mL penicillin, 100 µg/mL streptomycin и 0.25 µg/mL Gibco amphotericin), plate was put into the Luminometer chamber (EnSpire multimode plate reader, Perkin Elmer, USA), and kinetic of luciferin–luciferase reaction was detected at 37 °C (flashes/time 0.1 s). 2,4-DNP esters were dissolved in DMSO before the use. The total concentration of DMSO in final solution per well was 1%.
The inhibition effect was expressed as (3) Decrease of luminescence=[RLU]max−[RLU]t/[RLU]max×100%, where [RLU]max—relative luminescence units at the maximum of the kinetic profile; [RLU]t—relative luminescence units at certain time point.

[4] = pH 7.4
Method: Procedure: All samples were dispersed in 10 mM PBS (pH = 7. 4). Then the aliquots were incubated at a room tempera-
ture and at 65 °C for 1 h. After that we made several TLC for each sample representing heated and non-heated sub-

[5] = test system: 4T1-Luc cells; experiment: cells; assay type: cell-based, murine; settings: Mus musculus, read-out: IC50 (cytotoxicity)
Method: as §1, §2

[6] = in vitro; assay type: cell-based, mouse; settings: mouse; AML12, 24 h incubation, WST-1, free compounds in 1% DMSO; read-out: IC50 (cytotoxicity)
Method: as §1, §2

[7] = target: luciferase (Photinus pyralis, UniProt P08659); experiment: Control: addition to the luciferin–luciferase mixture; assay type: biochemical; settings: 200 µM added to the luciferin–luciferase mixture; data are not presented
luciferase, sequence (P08659 whole entry): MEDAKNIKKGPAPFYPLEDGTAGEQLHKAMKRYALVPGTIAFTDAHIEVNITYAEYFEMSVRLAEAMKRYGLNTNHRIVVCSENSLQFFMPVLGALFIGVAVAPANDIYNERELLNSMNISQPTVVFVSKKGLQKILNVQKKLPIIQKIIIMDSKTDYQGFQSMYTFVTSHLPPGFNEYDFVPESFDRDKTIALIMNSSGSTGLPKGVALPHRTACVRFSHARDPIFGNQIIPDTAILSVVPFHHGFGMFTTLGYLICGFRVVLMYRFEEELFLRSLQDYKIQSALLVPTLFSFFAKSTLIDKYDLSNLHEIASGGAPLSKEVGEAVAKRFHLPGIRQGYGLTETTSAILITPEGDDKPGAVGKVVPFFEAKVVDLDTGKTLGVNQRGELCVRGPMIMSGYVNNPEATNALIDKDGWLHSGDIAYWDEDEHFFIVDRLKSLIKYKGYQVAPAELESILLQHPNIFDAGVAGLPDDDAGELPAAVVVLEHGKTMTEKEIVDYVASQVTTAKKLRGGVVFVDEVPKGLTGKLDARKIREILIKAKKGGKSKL

Row | SMILES | LogPoct [1] | ATP synthesis inhibition (decrease of luminescence) [3] | ATP level after free carboxylic acids [3] | also measured
1 | CCCCCC(=O)Oc1ccc([N+](=O)[O-])cc1[N+](=O)[O-] [2,4-DNP-C6, 2,4-Dinitrophenol Caproic Acid Ester] | 3.07 ± 0.31 | higher inhibition effects in comparison to the free 2,4-DNP; also recorded: sustained inhibition of ATP synthesis | – | IC50 [2]: ~200 µM
2 | CCC(=O)Oc1ccc([N+](=O)[O-])cc1[N+](=O)[O-] [2,4-DNP-C3, 2,4-Dinitrophenol Propionic Acid Ester] | 1.91 ± 0.24 | higher inhibition effects in comparison to the free 2,4-DNP | – | IC50 [2]: ~200 µM; Ester stability (hydrolysis) [4]: most unstable ester
3 | CCCCCCCCCCCCCCCC(=O)Oc1ccc([N+](=O)[O-])cc1[N+](=O)[O-] [2,4-DNP-C16, 2,4-DNP Palmitic Acid Ester] | 5.18 ± 0.79 | neglectable decrease in the ATP level | – | IC50 ([5]; 24 h incubation, WST-1, free compounds in 1% DMSO): 100 to 150 µM; IC50 [6]: ~200 µM
4 | CCCCCCCCCCCCCCCC(=O)O [palmitic acid, Palmitic acid, reference compound] | – | – | did not show an increase in the ATP level | –
5 | O=[N+]([O-])c1ccc(O)c([N+](=O)[O-])c1 [2,4-DNP, 2,4-dinitrophenol] | 1.61 ± 0.30 | – | – | IC50 ([5]; 24 h): ~400 µM; IC50 at 24 h [6]: 500 to 600 µM; Luciferase activity [7]: did not influence the luciferase activity
6 | CCCCCC(=O)O [caproic acid, Hexanoic acid, reference compound] | – | – | did not show an increase in the ATP level | –
7 | CCC(=O)O [propionic acid, Propionic acid, reference compound] | – | – | did not show an increase in the ATP level | –
